The values below are quoted from earlier work in PubChem BioAssay AID1259409 (Chemical Carcinogenesis Research Information System (CCRIS), 2018).

This series concerns rodent chemically induced tumor inhibition, incidence and multiplicity. Nature of the series: CCRIS tumor inhibitor studies. The settings on record: Dose [Inhibitor]: 0, Route [Inhibitor]: ORAL, Species: RAT, Promoter: NONE USED.

On to `CCOC1=C(O)C(=O)O[C@@H]1[C@@H](O)CO`, for which the “tumour outcome (control, treated, inhibition, significance)” value was 2/18 (11%), 3/18 (17%), -55%, not significant (Carcinogen: 2-AMINO-1-METHYL-6-PHENYLIMIDAZO[4,5-B]PYRIDINE, 105650-23-5, 1% IN DIET FOR 52 WK CONCURRENTLY WITH CARCINOGEN TREATMENT (STUDY DURATION: 52 WK), Strain/Sex: F344/FEMALE, Target Tissue: Type of Lesion: LARGE INTESTINE: ADENOMA OR CARCINOMA, Dose [Carcinogen]: 0.02% IN DIET FOR 52 WK); 8/20 (40%), 6/21 (29%), 28%, not significant (Carcinogen: 2-AMINO-1-METHYL-6-PHENYLIMIDAZO[4,5-B]PYRIDINE, 105650-23-5, 1% IN DIET FOR 52 WK CONCURRENTLY WITH CARCINOGEN TREATMENT (STUDY DURATION: 52 WK), Strain/Sex: F344/FEMALE, Target Tissue: Type of Lesion: MAMMARY GLAND: ADENOCARCINOMA, Dose [Carcinogen]: 0.02% IN DIET FOR 52 WK); 33%, 13%, 60%, not significant (Carcinogen: DIETHYLNITROSAMINE, 55-18-5, N-METHYL-N-NITROSAUREA, 684-93-5, N-BUTYL-N-(4-HYDROXYBUTYL)NITROSAMINE, 3817-11-6, DIMETHY, Carcinogen: DIETHYLNITROSAMINE, 55-18-5, N-METHYL-N-NITROSAUREA, 684-93-5, N-BUTYL-N-(4-HYDROXYBUTYL)NITROSAMINE, 3817-11-6, DIMETHY, 1% IN THE DIET FOR 24 WK BEGINNING 1 DAY POST CARCINOGEN TREATMENT (STUDY DURATION: 28 WK), Strain/Sex: F344/MALE, Target Tissue: Type of Lesion: SMALL INTESTINE: ADENOMA, Dose [Carcinogen]: 100 MG/KG BW DEN ONCE FOLLOWED BY 20 MG/KG BW MNU 4 TIMES AND 0.05% BBN IN DRINKING WATER DURING FIRST 2 WK THEN 40 MG/K); 7%, 0%, 100%, not significant (Carcinogen: DIETHYLNITROSAMINE, 55-18-5, N-METHYL-N-NITROSOUREA, 684-93-4, N-BUTYL-N-(4-HYDROXYBUTYL)NITROSAMINE, 3817-11-6, DIMETHY, Carcinogen: DIETHYLNITROSAMINE, 55-18-5, N-METHYL-N-NITROSOUREA, 684-93-4, N-BUTYL-N-(4-HYDROXYBUTYL)NITROSAMINE, 3817-11-6, DIMETHY, 1% IN THE DIET FOR 24 WK BEGINNING 1 DAY POST CARCINOGEN TREATMENT (STUDY DURATION: 28 WK), Strain/Sex: F344/MALE, Target Tissue: Type of Lesion: URINARY BLADDER: CARCINOMA, Dose [Carcinogen]: 100 MG/KG BW DEN ONCE FOLLOWED BY 20 MG/KG BW MNU 4 TIMES AND 0.05% BBN IN DRINKING WATER DURING FIRST 2 WK THEN 40 MG/K); 7%, 0%, 100%, not significant (Carcinogen: DIETHYLNITROSAMINE, 55-18-5, N-METHYL-N-NITROSOUREA, 684-93-5, N-BUTYL-N-(4-HYDROXYBUTYL)NITROSAMINE, 3817-11-6, DIMETHY, Carcinogen: DIETHYLNITROSAMINE, 55-18-5, N-METHYL-N-NITROSOUREA, 684-93-5, N-BUTYL-N-(4-HYDROXYBUTYL)NITROSAMINE, 3817-11-6, DIMETHY, 1% IN DIET FOR 24 WK BEGINNING 1 DAY POST CARCINOGEN TREATMENT (STUDY DURATION: 28 WK), Strain/Sex: F344/MALE, Target Tissue: Type of Lesion: THYROID: CARCINOMA, Dose [Carcinogen]: 100 MG/KG BW DEN ONCE FOLLOWED BY 20 MG/KG BW MNU 4 TIMES AND 0.05% BBN IN DRINKING WATER DURING FIRST 2 WK THEN 40 MG/K); 7%, 7%, 0%, not significant (Carcinogen: DIETHYLNITROSAMINE, 55-18-5, N-METHYL-N-NITROSOUREA, 684-93-5, N-BUTYL-N-(4-HYDROXYBUTYL)NITROSAMINE, 3817-11-6, DIMETHY, Carcinogen: DIETHYLNITROSAMINE, 55-18-5, N-METHYL-N-NITROSOUREA, 684-93-5, N-BUTYL-N-(4-HYDROXYBUTYL)NITROSAMINE, 3817-11-6, DIMETHY, 1% IN DIET FOR 30 DAYS BEGINNING 1 DAY PRIOR TO CARCINOGEN TREATMENT (STUDY DURATION: 28 WK), Strain/Sex: F344/MALE, Target Tissue: Type of Lesion: URINARY BLADDER: PAPILLOMA, Dose [Carcinogen]: 100 MG/KG BW DEN ONCE FOLLOWED BY 20 MG/KG BW MNU 4 TIMES AND 0.05% BBN IN DRINKING WATER DURING FIRST 2 WK THEN 40 MG/K). Also, the “tumour outcome (control, treated, inhibition, significance)” value is 7%, 13%, -86%, not significant (Carcinogen: DIETHYLNITROSAMINE, 55-18-5, N-METHYL-N-NITROSOUREA, 684-93-5, N-BUTYL-N-(4-HYDROXYBUTYL)NITROSAMINE, 3817-11-6, DIMETHY, Carcinogen: DIETHYLNITROSAMINE, 55-18-5, N-METHYL-N-NITROSOUREA, 684-93-5, N-BUTYL-N-(4-HYDROXYBUTYL)NITROSAMINE, 3817-11-6, DIMETHY, 1% IN THE DIET FOR 24 WK BEGINNING 1 DAY POST CARCINOGEN TREATMENT ( STUDY DURATION: 28 WK), Strain/Sex: F344/MALE, Target Tissue: Type of Lesion: LARGE INTESTINE: CARCINOMA, Dose [Carcinogen]: 100 MG/KG BW DEN ONCE FOLLOWED BY 20 MG/KG BW MNU 4 TIMES AND 0.05% BBN IN DRINKING WATER DURING FIRST 2 WK THEN 40 MG/K) and 27%, 47%, -74%, not significant (Carcinogen: DIETHYLNITROSAMINE, 55-18-5, N-METHYL-N-NITROSOUREA, 684-93-5, N-BUTYL-N-(4-HYDROXYBUTYL)NITROSAMINE, 3817-11-6, DIMETHY, Carcinogen: DIETHYLNITROSAMINE, 55-18-5, N-METHYL-N-NITROSOUREA, 684-93-5, N-BUTYL-N-(4-HYDROXYBUTYL)NITROSAMINE, 3817-11-6, DIMETHY, 1% IN THE DIET FOR 24 WK BEGINNING 1 DAY POST CARCINOGEN TREATMENT (STUDY DURATION: 28 WK), Strain/Sex: F344/MALE, Target Tissue: Type of Lesion: LARGE INTESTINE: ADENOMA, Dose [Carcinogen]: 100 MG/KG BW DEN ONCE FOLLOWED BY 20 MG/KG BW MNU 4 TIMES AND 0.05% BBN IN DRINKING WATER DURING FIRST 2 WK THEN 40 MG/K).
